According to patent US20110070190A1 (Roche Palo Alto LLC, priority 2009, published 2011):

Columns and labels:
[1] = system: HCV replicon cells (2209-23), genotype 1b replicon in human hepatoma Huh7 cells; test: HCV replicon assay (Renilla luciferase reporter); type: cell-based, HCV genotype 1b; details: Hepatitis C virus, Huh-7, 72 h; 2209-23 cells, three days incubation
[2] = target: T1, HCV polymerase (NS5B570n-Con1) (Hepatitis C virus genotype 1b, UniProt Q9WMX2); test: HCV NS5B RNA polymerase activity (incorporation of radiolabeled nucleotide into acid insoluble RNA); type: biochemical, HCV Con1 strain
T1 construct: a 21 amino acid C-terminal deletion of full-length HCV polymerase; made in house; host or cells: E. coli BL21(DE3) pLysS, plasmid pET17b
Method: The enzymatic activity of HCV polymerase (NS5B570n-Con1) was measured as the incorporation of radiolabeled nucleotide monophosphates into acid insoluble RNA products. Unincorporated radiolabeled substrate was removed by filtration and scintillant was added to the washed and dried filter plate containing radiolabeled RNA product. The amount of RNA product generated by NS5B570n-Con1 at the end of the reaction was directly proportional to the amount of light emitted by the scintillant.
The HCV polymerase used in the enzymatic activity assay is a 21 amino acid C-terminal deletion of full-length HCV polymerase derived from HCV Con1 strain, genotype 1b (GenBank accession number AJ242654) (NS5B570n-Con1). The NS5B570n-Con1 was sub-cloned downstream to the T7 promoter of the plasmid expression construct pET17b and transformed into E. coli strain BL21(DE3) pLysS for protein expression. A single colony was used to start an innoculum for a 10 L culture in LB media supplemented with 100 μg/mL ampicillin at 37° C. Protein expression was induced by the addition of 0.25 mM isopropyl-β-D-thiogalactopyranoside (IPTG) when the optical density of the culture at […] was 0.8. Induction of protein expression was carried out at 30° C. for 16 h after which the cells were harvested by centrifugation. NS5B570n-Con1 was purified to homogeneity using a three-column purification protocol including subsequent column chromatography on Ni-NTA, SP-Sepharose HP and Superdex 75 resins.
Enzymatic reactions in the presence of cIRES RNA template (see paragraph [00213]) contained 20 nM cIRES RNA, 20 nM NS5B570n-Con1 enzyme, 0.5 μCi of tritiated UTP (Perkin Elmer catalog no. TRK-412; specific activity: 30 to 60 Ci/mmol;), 1 μM each ATP, CTP, and GTP, 40 mM Tris-HCl pH 8.0, 40 mM NaCl, 4 mM DTT (dithiothreitol), 4 mM MgCl2, 5 μl of compound serial diluted in DMSO, and nuclease-free water to a final reaction volume of 50 μl. Enzymatic reactions in the presence of poly A RNA template (see paragraph [00213]) contained 20 nM Poly A:oligo(rU)16 premixed (see section 0004), 20 nM NS5B570n-Con1 enzyme, 1 μCi of tritiated UTP (Perkin Elmer catalog no. TRK-412; specific activity: 30 to 60 Ci/mmol), 40 mM Tris-HCl pH 8.0, 40 mM NaCl, 4 mM DTT (dithiothreitol), 4 mM MgCl2, 5 μl of compound serial diluted in DMSO, and nuclease-free water to a final reaction volume of 50 μl. Reaction mixtures were assembled in 96-well filter plates (cat #MADVN0B, Millipore Co.) and incubated for 2 h at 30° C. Reactions were stopped by addition of 10% final (v/v) trichloroacetic acid and incubated for 40 min at 4° C. Reactions were filtered, washed with 8 reaction volumes of 10% (v/v) trichloroacetic acetic acid, 4 reaction volumes of 70% (v/v) ethanol, air dried, and 25 μl of scintillant (Microscint 20, Perkin-Elmer) was added to each reaction well.
Two RNA templates were used to assay compounds described herein. The cIRES RNA template was 377 nucleotide long and consisted of a partial complementary sequence (36 nucleotides) of the core protein, followed by 341 nucleotide of the complementary sequence of the internal ribosome entry site. The poly A RNA template (GE Amersham catalog number 27-4110) was a homopolymeric RNA pre-annealed to a oligo(rU)16 primer at a molar ratio of 3-to-1 (primer-template).
The amount of light emitted from the scintillant was converted to counts per minute (CPM) on a Topcount® plate reader (Perkin-Elmer, Energy Range: Low, Efficiency Mode: Normal, Count Time: 1 min, Background Subtract: none, Cross talk reduction: Off).
Data was analyzed in Excel® (Microsoft®) and ActivityBase® (Idbs®). The reaction in the absence of enzyme was used to determine the background signal, which was subtracted from the enzymatic reactions. Positive control reactions were performed in the absence of compound, from which the background corrected activity was set as 100% polymerase activity. All data was expressed as a percentage of the positive control. […]

Work on `Cc1cc(N)n2nc(-c3ccc(-c4cc5c(s4)c(=O)ncn5Cc4ccc(Cl)cc4)cc3Cl)cc2n1` [Compound I-2, 6-[4-(7-Amino-5-methyl-pyrazolo[1,5-a]pyrimidin-2-yl)-3-chloro-phenyl]-1-(4-chloro-benzyl)-1H-thieno[3,2-d]pyrimidin-4-one] yielded an IC50 [1] of 4.1 nM and an IC50 [2] of 4 nM.
For `Cc1ccc(Cn2cnc(=O)c3sc(-c4ccc(-c5cc6nc(C)cc(N)n6n5)cc4)cc32)cc1` [Compound I-38, 6-[4-(7-Amino-5-methyl-pyrazolo[1,5-a]pyrimidin-2-yl)-phenyl]-1-(4-methyl-benzyl)-1H-thieno[3,2-d]pyrimidin-4-one], the IC50 [1] was 47.2 nM and the IC50 [2] was 210 nM.
